From US11987588B2, “Modulators of the beta-3 adrenergic receptor useful for the treatment or prevention of heart failure and disorders related thereto” (Arena Pharmaceuticals, Inc., priority 2017, dated 2024)
Entries after “also recorded” stand apart in the source; their conditions may differ.

What follows are compounds tested on chronic heart failure (CHF) rats (assay: Chronic heart failure (CHF) rat model, attenuation of negative contractile effects of BRL 37344 on left ventricular pressure). Details: 10 min infusion at 3, 10, 30 mg/kg/hr, then bolus of BRL (3 μg/kg).
Assay type: in vivo
Protocol: Beta-3 adrenergic receptor antagonists can be evaluated for effects on cardiac contractility in chronic heart failure (CHF) rats. Beta-3 adrenergic receptor expression is weak in the normal rat heart and higher in the rat heart with CHF. Because beta-3 adrenergic receptor expression is higher in the rat heart with CHF, a compound of the present invention was evaluated for the ability to attenuate the negative contractile effects of the beta-3 adrenergic receptor agonist BRL 37344 (BRL) compared to baseline in this CHF rat model.
Myocardial infarction was induced in male Sprague-Dawley rats by performing left coronary descending artery ligation. […]
Heart failure was evaluated weekly following surgery by testing impaired left ventricular function by echocardiography. Left ventricle end-diastolic volume (LVEDV) and left ventricle end-systolic volume (LVESV) were measured for at least three consecutive cardiac cycles in long-axis view images. Ejection Fraction (EF %) was calculated using the following formula: EF %=(LVEDV-LVESV)/LVEDV. […]
A direct determination of left ventricular function was used for all rats to evaluate the effects of compounds on left ventricular contractility. […] Left ventricular pressure (LVP) was monitored by LabChart with POWERLAB® Data Acquisition System (ADInstruments, Sydney, Australia). […]

Row | SMILES | left ventricular pressure (LVP)
1 | CNS(=O)(=O)c1cccc(OC[C@@H](O)CN[C@H]2COC3(CCN(S(=O)(=O)c4cnc5cc[nH]c5c4)CC3)C2)c1 [Compound 505, 3-((S)-3-((R)-8-(1H-pyrrolo[3,2-b]pyridin-6-ylsulfonyl)-1-oxa-8-azaspiro[4.5]decan-3-ylamino)-2-hydroxypropoxy)-N-methylbenzenesulfonamide] | dose-dependent improvement; also recorded: inhibition of negative effects of BRL on left ventricular pressure (LVP)

These compounds were tested against Beta-3 Adrenergic Receptor (Homo sapiens (Human), UniProt P13945) (assay: Homogeneous Time-Resolved Fluorescence (HTRF) cAMP antagonist assay, IC50 determination). Details: CHO-K1 cells stably expressing recombinant receptor, isoproterenol at EC90.
Assay type: cell-based
Summary of the method: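 CHO-K1 cells stably expressing receptor, 1500 cells/well, preincubated briefly with 10-point 5-fold compound series (top final typically 10 or 100 μM) in PBS with 1 mM IBMX, then challenged with isoproterenol at EC90 for 1 h at room temperature. cAMP read by HTRF against on-plate standard curve; IC50 from dose-response.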

Chain of Beta-3 Adrenergic Receptor (P13945 whole entry, species assumed): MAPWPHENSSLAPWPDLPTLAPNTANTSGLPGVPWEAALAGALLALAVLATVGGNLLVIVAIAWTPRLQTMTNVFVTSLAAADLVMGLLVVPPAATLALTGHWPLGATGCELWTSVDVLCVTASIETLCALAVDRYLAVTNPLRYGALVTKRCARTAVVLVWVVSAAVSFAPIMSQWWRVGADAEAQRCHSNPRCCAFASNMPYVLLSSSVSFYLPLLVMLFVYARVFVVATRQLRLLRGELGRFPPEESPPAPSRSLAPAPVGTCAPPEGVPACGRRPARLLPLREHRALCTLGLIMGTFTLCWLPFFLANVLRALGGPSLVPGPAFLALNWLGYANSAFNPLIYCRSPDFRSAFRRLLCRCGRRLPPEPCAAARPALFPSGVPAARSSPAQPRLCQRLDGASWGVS

Row | SMILES | IC50
2 | CNS(=O)(=O)c1cccc(OC[C@@H](O)CN[C@H]2COC3(CCN(S(=O)(=O)c4cnc5cc[nH]c5c4)CC3)C2)c1 [Compound 505, 3-((S)-3-((R)-8-(1H-pyrrolo[3,2-b]pyridin-6-ylsulfonyl)-1-oxa-8-azaspiro[4.5]decan-3-ylamino)-2-hydroxypropoxy)-N-methylbenzenesulfonamide] | 0.00846 µM
3 | CNS(=O)(=O)c1cccc(OC[C@@H](O)CNC2COC3(CCN(S(=O)(=O)c4cc(C#N)ccc4C)CC3)C2)c1 (stereo partly drawn) [Compound 217, 3-((2S)-3-(8-(5-cyano-2-methylphenylsulfonyl)-1-oxa-8-azaspiro[4.5]decan-3-ylamino)-2-hydroxypropoxy)-N-methylbenzenesulfonamide] | 0.0351 µM
4 | CCNS(=O)(=O)c1cccc(OC[C@@H](O)CNC2COC3(CCN(S(=O)(=O)c4ccc5ccccc5c4)CC3)C2)c1 (stereo partly drawn) [Compound 101, N-ethyl-3-((2S)-2-hydroxy-3-(8-(naphthalen-2-ylsulfonyl)-1-oxa-8-azaspiro[4.5]decan-3-ylamino)propoxy)benzenesulfonamide] | 0.00962 µM
5 | CNS(=O)(=O)c1cccc(OC[C@@H](O)CN[C@@H]2COC3(CCN(S(=O)(=O)c4cccc5nsnc45)CC3)C2)c1 [Compound 244, 3-((S)-3-((S)-8-(benzo[c][1,2,5]thiadiazol-4-ylsulfonyl)-1-oxa-8-azaspiro[4.5]decan-3-ylamino)-2-hydroxypropoxy)-N-methylbenzenesulfonamide] | 0.0761 µM
6 | CNS(=O)(=O)c1cccc(OC[C@@H](O)CN[C@H]2COC3(CCN(c4nccc(Cc5ccccc5)n4)CC3)C2)c1 [Compound 573, 3-((S)-3-((R)-8-(4-benzylpyrimidin-2-yl)-1-oxa-8-azaspiro[4.5]decan-3-ylamino)-2-hydroxypropoxy)-N-methylbenzenesulfonamide] | 0.115 µM
